According to US12281102B2, “Inhibitors of APOL1 and methods of using same” (Vertex Pharmaceuticals Incorporated, priority 2020, dated 2025):

How the values were obtained:
G1 APOL1 = target: T1, G1 APOL1 (Homo sapiens, UniProt O14791, I384M/S342G); assay: Acute APOL1 Thallium Assay with inducible stable clones of HEK 293 cells; assay type: cell-based; conditions: HEK 293 T-Rex inducible stable clone expressing G1 APOL1; read-out: Thallium Assay (IC50)
T1 construct: expressed in transfected cells
T1 sequence (O14791 28-398 S342G/I384M): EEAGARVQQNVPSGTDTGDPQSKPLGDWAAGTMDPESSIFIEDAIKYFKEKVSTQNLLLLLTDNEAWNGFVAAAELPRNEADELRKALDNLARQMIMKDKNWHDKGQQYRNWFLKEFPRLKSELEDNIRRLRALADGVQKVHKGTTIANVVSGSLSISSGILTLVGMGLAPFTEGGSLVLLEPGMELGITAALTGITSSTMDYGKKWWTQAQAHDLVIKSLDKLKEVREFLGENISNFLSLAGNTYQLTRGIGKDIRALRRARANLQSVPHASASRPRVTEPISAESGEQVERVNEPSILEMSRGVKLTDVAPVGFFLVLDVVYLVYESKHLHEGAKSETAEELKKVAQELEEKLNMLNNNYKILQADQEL
Method in brief: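 APOL1 pore function was measured as thallium influx, detected by a Tl+-sensitive fluorescent dye loaded as AM ester, on a FLIPR Tetra after Tl+ addition. Cells were HEK T-Rex G1 APOL1 clone DC3.25, 26,000 per well, induced with tetracycline at plating in Opti-MEM assay medium.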

APOL1 G1 Protein = target: T2, APOL1 G1 Protein (Homo sapiens, UniProt O14791, I384M/S342G); assay: Trypanosoma brucei brucei lysis assay using APOL1 recombinant protein (AlamarBlue viability); assay type: cell-based; conditions: Trypanosoma brucei brucei lysis with recombinant APOL1 protein
T2 sequence (O14791 28-398 S342G/I384M): T1 sequence (O14791 28-398 S342G/I384M)

| Structure (SMILES) | IC50 (G1 APOL1) | IC50 (APOL1 G1 Protein) |
| --- | --- | --- |
| CC(=O)N1CCC(Cc2c(-c3ccc(F)cc3)[nH]c3c(F)cc(F)cc23)C1 (stereo not shown) [Compound 444, 1-(3-((5,7-difluoro-2-(4-fluorophenyl)-1H-indol-3-yl)methyl)pyrrolidin-1-yl)ethan-1-one] | > 1 µM | 0.25 to 1 µM |
| NC1CC2(C1)CC(c1c(-c3ccc(F)cc3)[nH]c3c(F)cc(F)cc13)C2 (stereo not shown) [Compound 432, 6-[5,7-difluoro-2-(4-fluorophenyl)-1H-indol-3-yl]spiro[3.3]heptan-2-amine] | > 1 µM | < 0.25 µM |
| COCC(=O)NC1CC(c2c(-c3ccc(F)cc3)[nH]c3c(F)cc(F)cc23)C1 (stereo not shown) [Compound 18, N-[3-[5,7-difluoro-2-(4-fluorophenyl)-1H-indol-3-yl]cyclobutyl]-2-methoxy-acetamide] | 0.25 to 1 µM | 0.25 to 1 µM |
| O=C(C1CCO1)N1CCC(Cc2c(-c3ccc(F)cc3)[nH]c3c(F)cc(F)cc23)C1 (stereo not shown) [Compound 443, [3-[[5,7-difluoro-2-(4-fluorophenyl)-1H-indol-3-yl]methyl]pyrrolidin-1-yl]-(oxetan-2-yl)methanone] | 0.25 to 1 µM | 0.25 to 1 µM |
| O=C1CC(C(=O)NC[C@H]2C[C@@H](c3c(-c4ccc(F)cc4)[nH]c4c(F)cc(F)cc43)C2)CN1 (stereo partly shown) [Compound 294] | > 1 µM |  |
| NC[C@]1(O)C[C@@H](c2c(-c3ccc(F)cc3)[nH]c3c(F)cc(F)cc32)C1 [Compound 430, (1s,3s)-1-(aminomethyl)-3-(5,7-difluoro-2-(4-fluorophenyl)-1H-indol-3-yl)cyclobutan-1-ol] | 0.25 to 1 µM |  |
| O=C(CC1COC1)NC[C@H]1C[C@@H](c2c(-c3ccc(F)cc3)[nH]c3c(F)cc(F)cc32)C1 [Compound 319] | > 1 µM |  |
| CC(=O)N[C@@H](CO)C(=O)NC[C@H]1C[C@H](c2c(-c3ccc(F)cc3)[nH]c3c(F)cc(F)cc32)C1 [Compound 224] | 0.25 to 1 µM |  |
| C[C@H](O)C(=O)NC[C@H]1C[C@H](c2c(-c3ccc(F)cc3)[nH]c3c(F)cc(F)cc32)C1 [Compound 207] | 0.25 to 1 µM |  |
| O=C1C=C(NC[C@H]2C[C@H](c3c(-c4ccc(F)cc4)[nH]c4c(F)cc(F)cc43)C2)C(=O)N1 [Compound 421, 3-((((1r,3r)-3-(5,7-difluoro-2-(4-fluorophenyl)-1H-indol-3-yl)cyclobutyl)methyl)amino)-1H-pyrrole-2,5-dione] | > 1 µM |  |
| O=C(Cc1cnccn1)NC[C@H]1C[C@H](c2c(-c3ccc(F)cc3)[nH]c3c(F)cc(F)cc32)C1 [Compound 238] | > 1 µM |  |
| COCCC(=O)NC[C@H]1C[C@@H](c2c(-c3ccc(F)cc3)[nH]c3c(F)cc(F)cc32)C1 [Compound 209] | 0.25 to 1 µM |  |
| CC1(C)CCC(C(=O)N[C@H]2C[C@@H](c3c(-c4ccc(F)cc4)[nH]c4c(F)cc(F)cc43)C2)N1 (stereo partly shown) [Compound 64] | > 1 µM |  |
| O=C1CC(CC(=O)N[C@H]2C[C@H](c3c(-c4ccc(F)cc4)[nH]c4c(F)cc(F)cc43)C2)CC(=O)N1 [Compound 132] | > 1 µM |  |
| O=S(=O)(NC[C@H]1C[C@H](c2c(-c3ccc(F)cc3)[nH]c3c(F)cc(F)cc32)C1)NC1(CO)CC1 [Compound 343] | 0.25 to 1 µM |  |
| OCC(CO)(CO)NCC1CC(c2c(-c3ccc(F)cc3)[nH]c3c(F)cc(F)cc23)C1 (stereo not shown) [Compound 406] | > 1 µM |  |
| O=C1C[C@H](C(=O)NC[C@H]2C[C@H](c3c(-c4ccc(F)cc4)[nH]c4c(F)cc(F)cc43)C2)N1 [Compound 237] | > 1 µM |  |
| NC(=O)C(=O)NC[C@H]1C[C@@H](c2c(-c3ccc(F)cc3)[nH]c3c(F)cc(F)cc32)C1 [Compound 453, N^1-(((1s,3s)-3-(5,7-difluoro-2-(4-fluorophenyl)-1H-indol-3-yl)cyclobutyl)methyl)oxalamide] | > 1 µM |  |
| OCC(CO)NCC1CC(c2c(-c3ccc(F)cc3)[nH]c3c(F)cc(F)cc23)C1 (stereo not shown) [Compound 376] | 0.25 to 1 µM |  |
| O=C(CC1CCOCC1)N[C@H]1C[C@@H](c2c(-c3ccc(F)cc3)[nH]c3c(F)cc(F)cc32)C1 [Compound 34] | > 1 µM |  |
| Fc1ccc(-c2[nH]c3c(F)cc(F)cc3c2C2CC(CN[C@@H]3CCOC3)C2)cc1 (stereo partly shown) [Compound 391] | > 1 µM |  |

Further lines, with some results ahead:

| IC50 (G1 APOL1) | Structure (SMILES) | IC50 (APOL1 G1 Protein) |
| --- | --- | --- |
| < 0.25 µM | NCC1CC(c2c(-c3ccc(F)cc3)[nH]c3c(F)cc(F)cc23)C1 (mixture of isomers) [Compound 186, (3-(5,7-difluoro-2-(4-fluorophenyl)-1H-indol-3-yl)cyclobutyl)methanamine] | < 0.25 µM |
| < 0.25 µM | NC1CC(c2c(-c3ccc(Cl)cc3)[nH]c3c(F)cc(F)cc23)C1 (mixture of isomers) [Compound 10, 3-[2-(4-chlorophenyl)-5,7-difluoro-1H-indol-3-yl]cyclobutanamine] | < 0.25 µM |
| < 0.25 µM | Cc1ccc(-c2[nH]c3c(F)cc(F)cc3c2C2CC(CN)C2)cc1 (stereo not shown) [Compound 184] | < 0.25 µM |
| < 0.25 µM | Cc1cccc(-c2[nH]c3c(F)cc(F)cc3c2C2CC(CN)C2)c1 (stereo not shown) [Compound 181] | < 0.25 µM |
| 0.25 to 1 µM | NCC1(O)CC(c2c(-c3ccc(F)cc3)[nH]c3c(F)cc(F)cc23)C1 (stereo not shown) [Compound 427, 1-(aminomethyl)-3-[5,7-difluoro-2-(4-fluorophenyl)-1H-indol-3-yl]cyclobutanol] | < 0.25 µM |
| 0.25 to 1 µM | COc1ccc(-c2[nH]c3c(F)cc(F)cc3c2C2CC(N)C2)cc1 (mixture of isomers) [Compound 12, 3-[5,7-difluoro-2-(4-methoxyphenyl)-1H-indol-3-yl]cyclobutanamine] | < 0.25 µM |
| 0.25 to 1 µM | CC(C)(O)CC(=O)NC1CC(c2c(-c3ccc(F)cc3)[nH]c3c(F)cc(F)cc23)C1 (stereo not shown) [Compound 16, N-[3-[5,7-difluoro-2-(4-fluorophenyl)-1H-indol-3-yl]cyclobutyl]-3-hydroxy-3-methyl-butanamide] | 0.25 to 1 µM |
| 0.25 to 1 µM | CC(=O)NC1CC(c2c(-c3ccc(F)cc3)[nH]c3c(F)cc(F)cc23)C1 (stereo not shown) [Compound 17, N-[3-[5,7-difluoro-2-(4-fluorophenyl)-1H-indol-3-yl]cyclobutyl]acetamide] | 0.25 to 1 µM |
| < 0.25 µM | O[C@H]1C[C@H](c2c(-c3ccc(F)cc3)[nH]c3c(F)cc(F)cc32)C1 [Compound 174, (1r,3r)-3-(5,7-difluoro-2-(4-fluorophenyl)-1H-indol-3-yl)cyclobutan-1-ol] | < 0.25 µM |
| < 0.25 µM | OCCNCC1CC(c2c(-c3ccc(F)cc3)[nH]c3c(F)cc(F)cc23)C1 (stereo not shown) [Compound 374, 2-[[3-[5,7-difluoro-2-(4-fluorophenyl)-1H-indol-3-yl]cyclobutyl]methylamino]ethanol] | < 0.25 µM |
| 0.25 to 1 µM | CC(=O)OC1CC(c2c(-c3ccc(F)cc3)[nH]c3c(F)cc(F)cc23)C1 (mixture of isomers) [Compound 173, [3-[5,7-difluoro-2-(4-fluorophenyl)-1H-indol-3-yl]cyclobutyl]acetate] | < 0.25 µM |
| 0.25 to 1 µM | O=C(CO)NCC1CC(c2c(-c3ccc(F)cc3)[nH]c3c(F)cc(F)cc23)C1 (stereo not shown) [Compound 214] | 0.25 to 1 µM |
| 0.25 to 1 µM | N[C@H]1CC[C@H](c2c(-c3ccc(F)cc3)[nH]c3c(F)cc(F)cc32)CC1 (single isomer, unassigned) [Compound 434, Trans-4-[5,7-difluoro-2-(4-fluorophenyl)-1H-indol-3-yl]cyclohexanamine] | < 0.25 µM |
| < 0.25 µM | NCC1CC(c2c(-c3ccc(OC(F)(F)F)cc3)[nH]c3c(F)cc(F)cc23)C1 (stereo not shown) [Compound 180] | < 0.25 µM |
| < 0.25 µM | NC1CCC(c2c(-c3ccc(F)cc3)[nH]c3c(F)cc(F)cc23)CC1 (stereo not shown) [Compound 433, 4-[5,7-difluoro-2-(4-fluorophenyl)-1H-indol-3-yl]cyclohexanamine] | < 0.25 µM |
| < 0.25 µM | OCC1CC(c2c(-c3ccc(F)cc3)[nH]c3c(F)cc(F)cc23)C1 (stereo not shown) [Compound 424, [3-[5,7-difluoro-2-(4-fluorophenyl)-1H-indol-3-yl]cyclobutyl]methanol] | < 0.25 µM |
| < 0.25 µM | COCCNCC1CC(c2c(-c3ccc(F)cc3)[nH]c3c(F)cc(F)cc23)C1 (stereo not shown) [Compound 375] | < 0.25 µM |
| < 0.25 µM | Cc1ccc(-c2[nH]c3c(F)cc(F)cc3c2C2CC(N)C2)cc1 (mixture of isomers) [Compound 4, 3-[5,7-difluoro-2-(p-tolyl)-1H-indol-3-yl]cyclobutanamine] | < 0.25 µM |
| < 0.25 µM | NC[C@H]1C[C@@H](c2c(-c3ccc(F)cc3)[nH]c3c(F)cc(F)cc32)C1 [Compound 187, ((1s,3s)-3-(5,7-difluoro-2-(4-fluorophenyl)-1H-indol-3-yl)cyclobutyl)methanamine] | < 0.25 µM |
| < 0.25 µM | NC[C@H]1C[C@H](c2c(-c3ccc(F)cc3)[nH]c3c(F)cc(F)cc32)C1 [Compound 188, ((1r,3r)-3-(5,7-difluoro-2-(4-fluorophenyl)-1H-indol-3-yl)cyclobutyl)methanamine] | < 0.25 µM |
| < 0.25 µM | O=C(NC[C@H]1C[C@H](c2c(-c3ccc(F)cc3)[nH]c3c(F)cc(F)cc32)C1)[C@@H]1CCCN1 [Compound 199] |  |
| < 0.25 µM | CCS(=O)(=O)N[C@H]1C[C@H](c2c(-c3ccc(F)cc3)[nH]c3c(F)cc(F)cc32)C1 [Compound 147] |  |
